Results taken from article PMC3463134 (Chembiochem : a European journal of chemical biology, 2012).

Experiments:
KtzI = target: T1, KtzI (Kutzneria sp. 744, UniProt A8CF85); assay: NADPH oxidation assay; format: biochemical; settings: FAD, non-substrate effector (uncoupled NADPH oxidation)
T1 sequence (A8CF85 1-424): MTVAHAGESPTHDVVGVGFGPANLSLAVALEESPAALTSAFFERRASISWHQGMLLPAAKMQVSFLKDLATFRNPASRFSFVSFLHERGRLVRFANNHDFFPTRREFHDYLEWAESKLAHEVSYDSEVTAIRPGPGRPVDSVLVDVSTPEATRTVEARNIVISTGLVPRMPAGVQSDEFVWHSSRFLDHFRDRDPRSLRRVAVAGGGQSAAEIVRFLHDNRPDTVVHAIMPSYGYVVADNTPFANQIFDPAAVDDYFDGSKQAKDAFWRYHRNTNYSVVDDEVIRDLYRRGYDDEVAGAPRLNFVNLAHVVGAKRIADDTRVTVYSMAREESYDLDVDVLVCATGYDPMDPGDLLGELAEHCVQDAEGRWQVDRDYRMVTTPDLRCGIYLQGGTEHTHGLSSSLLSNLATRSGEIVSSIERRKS

purified protein = substrate: NCCC[C@H](N)C(=O)O; assay: purified protein; settings: FAD cofactor; NAD(P)H and O2 cosubstrates; apparent kcat

## NCCC[C@@H](N)C(=O)O [D-Orn]
KtzI
  NADPH oxidation assay: L-Lys and D-Orn were observed to be non-substrate effectors of the enzyme

## NCCCC[C@H](N)C(=O)O [L-Lys]
KtzI
  NADPH oxidation assay: L-Lys and D-Orn were observed to be non-substrate effectors of the enzyme

B1: KtzI (Kutzneria sp. 744) (protein)
chain: T1 sequence (A8CF85 1-424)
Purified protein
  Km: 91 ± 8 µM
  kcat: 0.116 ± 0.00217 s⁻¹
